We go through 51 molecules from patent US6696470B2, “Pyridylthiophene compounds” (Pfizer Inc., priority 1997, dated 2004).

What is called melting point is the temperature, or range, at which the solid turns liquid. `CC(=O)c1cc(-c2ccncc2)sc1Oc1ccccc1F` [Example 56, 3-Acetyl-2-(2-fluorophenoxy)-5-(4-pyridyl)thiophene] displayed a melting point of 93 to 96 °C. As to `CC(=O)c1cc(-c2ccncc2)sc1Oc1cccc(Oc2ccc(F)cc2)c1.Cl`, the melting point fell in the range of 251 to 253 °C.

With `CC(=O)c1c(C)oc(-c2ccncc2)c1C` [Example 1, 3-Acetyl-2,4-dimethyl-5-(4-pyridyl)furan], the melting point lay within 65 to 66.5 °C. In turn, `CC(=O)c1c(-c2ccncc2)sc(Cl)c1C` [Example 17, 3-Acetyl-5-chloro-4-methyl-2-(4-pyridyl)thiophene] returned a melting point of 60 to 61 °C. As for `CC(C)OC(=O)c1cc(-c2ccncc2)sc1-c1ccncc1` [Example 60, 3-(Isopropyloxycarbonyl)-2,5-di(4-pyridyl)thiophene], the melting point fell in the range of 139 to 142 °C. In the case of `N#Cc1cc(-c2ccncc2)sc1-c1ccncc1` [Example 29, 3-Cyano-2,5-di(4-pyridyl)thiophene], the melting point lay within 205 to 207 °C. `O=C1CCc2c(-c3ccncc3)sc(-c3ccncc3)c21` [Example 22, 1,3-Di(4-pyridyl)-5,6-dihydro-4H-cyclopenta(c)thiophen-4-one] yielded a melting point of 168 to 170 °C. `O=S(=O)(c1cc(-c2ccncc2)sc1-c1ccncc1)N1CCCC1` [Example 25, 2,5-Di(4-pyridyl)-3-(pyrrolidine-1-sulfonyl)thiophene] yielded a melting point of 193 to 195 °C. The value for `CC(=O)c1sc2sc(-c3ccncc3)c(C)c2c1C` [Example 43, 2-Acetyl-3,4-dimethyl-5-(4-pyridyl)thieno[2,3-b]thiophene] was 171 to 173 °C; that for `CC(=O)c1c(C)sc(-c2ccncc2)c1C` [Example 18, 3-Acetyl-2,4-dimethyl-5-(4-pyridyl)thiophene] was 80 to 81 °C. For `CC(=O)c1csc(-c2ccncc2)c1C` [Example 27, 4-Acetyl-3-methyl-2-(4-pyridyl)thiophene] the value was 87 to 87.5 °C; for `CC(=O)c1cc(-c2ccncc2)sc1N(C)Cc1ccccc1.Cl`, 199 to 202 °C; for `O=C1CCCc2c(Cl)sc(-c3ccncc3)c21` [Example 45, 1-Chloro-3-(4-pyridyl)-4,5,6,7-tetrahydrobenzo(c)thiophen-4-one], 93 to 95 °C. On to `Cc1c(-c2ccncc2)oc2c1C(=O)OC(C)C2` (stereo not drawn) [Example 10, 6,7-Dihydro-3,6-dimethyl-2-(4-pyridyl)-furo[3,2-c]pyran-4-one], for which the melting point lay within 157 to 160 °C. `CC(=O)c1cc(-c2ccncc2)sc1Oc1ccccc1` [Example 42, 3-Acetyl-2-phenoxy-5-(4-pyridyl)thiophene]: the melting point lay in the range of 103 to 105 °C. The value for `O=C1CCc2c(-c3ccncc3)sc(-c3ccc(C(F)(F)F)cc3)c21` [Example 66, 1-(4-Pyridyl)-3-(4-trifluoromethylphenyl)-5,6-dihydro-4H-cyclopenta(c)thiophene-4-one] was 158 to 160 °C; that for `O=C1CCc2c(-c3ccncc3)sc(-c3ccccc3F)c21` [Example 53, 3-(2-Fluorophenyl)-1-(4-pyridyl)-5,6-dihydro-4H-cyclopenta(c)thiophene-4-one] was 133 to 135 °C; that for `CC(=O)c1c(CC(C)C)oc(-c2ccncc2)c1C.Cl` was 171 to 174 °C.

With `Cc1c(-c2ccncc2)oc2c1C(=O)CCC2` [Example 2, 3-Methyl-4-oxo-2-(4-pyridyl)-4,5,6,7-tetrahydrobenzofuran], the melting point was 136 to 138 °C. With `CC(=O)c1c(-c2ccccc2)sc(-c2ccncc2)c1C` [Example 19, 3-Acetyl-4-methyl-2-phenyl-5-(4-pyridyl)thiophene], the melting point fell in the range of 111 to 112 °C.

Molecule `CC(=O)c1c(-c2ccsc2)sc(-c2ccncc2)c1C` [Example 35, 3-Acetyl-4-methyl-5-(4-pyridyl)-2-(3-thienyl)thiophene] yielded a melting point of 98 to 100 °C. The value for `O=C1CCc2c(-c3ccncc3)sc(-c3ccc(F)cc3)c21` [Example 58, 3-(4-Fluorophenyl)-1-(4-pyridyl)-5,6-dihydro-4H-cyclopenta(c)thiophene-4-one] was 193 to 195 °C; that for `Cc1c(-c2ccncc2)sc(-c2ccncc2)c1CF` [Example 65, 2,5-Di(4-pyridyl)-3-fluoromethyl-4-methylthiophene] was 148 to 148.5 °C. In turn, `NC(=O)CCc1cc(-c2ccncc2)sc1-c1ccncc1` [Example 70, 3-[2,5-di-(4-pyridyl)3-thienyl]propionamide] registered a melting point of 196 to 196.5 °C. The molecule `O=C1CCCc2c(-c3ccncc3)sc(-c3ccncc3)c21` [Example 41, 1,3-Di(4-pyridyl)-4,5,6,7-tetrahydrobenzo(c)thiophen-4-one] showed a melting point of 157 to 160 °C. For `CC(=O)c1sc(-c2ccncc2)c(C)c1-c1ccncc1` [Example 13, 2-Acetyl-4-methyl-3,5-di(4-pyridyl)thiophene] the value was 117 to 118 °C; for `CC(=O)c1c(-c2ccccc2)oc(-c2ccncc2)c1C` [Example 3, 3-Acetyl-4-methyl-2-phenyl-5-(4-pyridyl)furan], 108 to 110 °C; for `CC1(C)CCC(=O)c2c1oc(-c1ccncc1)c2-c1ccccc1` [Example 12, 7,7-Dimethyl-3-phenyl-4-oxo-2-(4-pyridyl)4,5,6,7-tetrahydrobenzofuran], 156 to 157 °C. In turn, `CC(=O)c1c(-c2ccc(F)cc2)sc(-c2ccncc2)c1C` [Example 32, 3-Acetyl-2-(4-fluorophenyl)-4-methyl-5-(4-pyridyl)thiophene] had a melting point of 116 to 118 °C. For `CC(=O)c1cc(-c2ccncc2)sc1N1CCN(C)CC1` [Example 38, 3-Acetyl-2-(4-methylpiperazin-1-yl)-5-(4-pyridyl)thiophene] the value was 115 to 117 °C. The value for `CC(=O)c1sc(-c2ccncc2)c(-c2ccncc2)c1C` [Example 14, 2-Acetyl-3-methyl-4,5-di(4-pyridyl)thiophene] was 140 to 142 °C. For `O=C1CCc2c(Cl)sc(-c3ccncc3)c21` [Example 54, 1-Chloro-3-(4-pyridyl)-5,6-dihydro-4H-cyclopenta(c)thiophene-4-one] the value was 163 to 165 °C. Consider `COC(=O)c1cc(-c2ccncc2)sc1-c1ccncc1` [Example 23, 2,5-Di(4-pyridyl)-3-methoxycarbonylthiophene], for which the melting point is 133 to 135 °C. For `O=C1CCCc2sc(-c3ccncc3)cc21` [Example 16, 4-Oxo-2-(4-pyridyl)-4,5,6,7-tetrahydro-benzo(b)thiophene] the value was 156 to 158 °C; for `O=C1CCc2c(-c3ccncc3)sc(-c3cccnc3)c21` [Example 63, 1-(4-Pyridyl)-3-(3-pyridyl)-5,6-dihydro-4H-cyclopenta(c)thiophene-4-one], 214 to 216 °C. For `CSc1sc(-c2ccncc2)c2c1C(=O)CCC2` [Example 47, 3-Methylthio-1-(4-pyridyl)-4,5,6,7-tetrahydrobenzo(c)thiophen-4-one] the value was 115 to 116 °C; for `CSc1ccc(-c2sc(-c3ccncc3)c(C)c2C(C)=O)cc1` [Example 36, 3-Acetyl-4-methyl-5-(4-pyridyl)-2-(4-methylthiophenyl)thiophene], 106 to 108 °C. `Cc1c(-c2ccncc2)oc2c1C(=O)C(C)(C)CC2` [Example 6, 4-Oxo-2-(4-pyridyl)-3,5,5-trimethyl-4,5,6,7-tetrahydrobenzofuran]: the melting point lay within 133 to 134 °C. `CCc1c(-c2ccncc2)oc2c1C(=O)CCC2(C)C` [Example 11, 3-Ethyl-7,7-dimethyl-4-oxo-2-(4-pyridyl)-4,5,6,7-tetrahydrobenzofuran]: the melting point was in the range of 86 to 88 °C.

With `Cc1c(-c2ccncc2)sc(-c2ccncc2)c1C(C)O` (stereo not drawn) [Example 21, 2,5-Di(4-pyridyl)-3-(1-hydroxyethyl)-4-methylthiophene], the melting point is 155 to 157 °C. For `Cc1c(-c2ccncc2)oc2c1C(=O)CCC2(C)C` [Example 7, 4-Oxo-2-(4-pyridyl)-3,7,7-trimethyl-4,5,6,7-tetrahydrobenzofuran] the value was 138 to 140 °C. For `CN(C)C(=O)CCc1cc(-c2ccncc2)sc1-c1ccncc1` [Example 49, N,N-Dimethyl-3-[2,5-di-(4-pyridyl)3-thienyl]propionamide] the value was 166.5 to 167 °C.

`CC(=O)c1cc(-c2ccncc2)sc1-c1ccncc1` [Example 24, 3-Acetyl-2,5-di(4-pyridyl)thiophene]: the melting point was in the range of 117 to 119 °C. For `Cc1c(-c2ccncc2)sc(-c2ccncc2)c1CNO.Cl.Cl.Cl` the value was 219 to 222 °C (dec.). In the case of `CC(=O)c1cc(-c2ccncc2)sc1Oc1ccc(F)cc1` [Example 62, 3-Acetyl-2-(4-fluorophenoxy)-5-(4-pyridyl)thiophene], the melting point is 147 to 149 °C. The value for `NC(=O)c1cc(-c2ccncc2)sc1-c1ccncc1` [Example 59, 2,5-Di(4-pyridyl)-3-thiophenecarboxamide] was 240 to 242 °C; that for `CC(=O)c1cc(-c2ccncc2)sc1Oc1cc(F)ccc1F` [Example 57, 3-Acetyl-2-(2,5-difluorophenoxy)-5-(4-pyridyl)thiophene] was 119 to 121 °C; that for `O=C1CCc2c(-c3ccc(F)cc3)sc(-c3ccncc3)c21` [Example 67, 1-(4-Fluorophenyl)-3-(4-pyridyl)-5,6-dihydro-4H-cyclopenta(c)thiophene-4-one] was 155 to 157 °C.

With `CCOC(=O)CCc1cc(-c2ccncc2)sc1-c1ccncc1.Cl.Cl`, the melting point is 205 to 208 °C (dec.).

The molecule `O=C(c1ccccc1)c1cc(-c2ccncc2)sc1-c1ccncc1` [Example 33, 3-Benzoyl-2,5-di(4-pyridyl)thiophene] came in with a melting point of 168 to 170 °C.

With `Cc1c(-c2ccncc2)sc2c1C(=O)CCC2` [Example 20, 3-Methyl-4-oxo-2-(4-pyridyl)4,5,6,7-tetrahydrobenzothiophene], the melting point is 129 to 130 °C.
